Measured values: the supplement of paper PMC10307832

How the values were obtained:
Assay in all cases: relative viability (nuclei count vs DMSO), 5 days (fraction); higher = more cells survive
Calu-6 = test system: Calu-6
Summary of the method: (§1)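 Each reported value is a median over duplicate plates. It expresses relative viability: treated-well nuclei count divided by vehicle-well nuclei count. Lung cancer cell lines in 1536-well plates were dosed by pin tool a day after seeding, alone with one drug or with a fixed anchor-drug dose plus five library-drug doses (not always all listed) in √10 steps, and nuclei were counted after 5 days.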

A549 = test system: A549
Summary of the method: as §1

EBC-1 = test system: EBC-1
Summary of the method: as §1

NCI-H1299 = test system: NCI-H1299
Summary of the method: as §1

NCI-H1648 = test system: NCI-H1648
Summary of the method: as §1

NCI-H1563 = test system: NCI-H1563
Summary of the method: as §1

Compound	relative viability (Calu-6; first compound 0.253 µM)	relative viability (Calu-6; first compound 0.8 µM)	relative viability (Calu-6; first compound 2.53 µM)	relative viability (Calu-6; first compound 8 µM)	relative viability (A549; first compound 0.253 µM)	relative viability (A549; first compound 0.8 µM)	relative viability (A549; first compound 2.53 µM)	relative viability (A549; first compound 8 µM)	relative viability (EBC-1; first compound 0.253 µM)	relative viability (EBC-1; first compound 0.8 µM)	relative viability (EBC-1; first compound 2.53 µM)	relative viability (EBC-1; first compound 8 µM)	relative viability (NCI-H1299; first compound 0.253 µM)	relative viability (NCI-H1648; first compound 0.253 µM)	relative viability (NCI-H1648; first compound 2.53 µM)	relative viability (NCI-H1648; first compound 8 µM)	relative viability (NCI-H1563; first compound 0.253 µM)	relative viability (NCI-H1563; first compound 0.8 µM)	relative viability (NCI-H1563; first compound 2.53 µM)	relative viability (NCI-H1563; first compound 8 µM)	further results
Nc1cccc2c1CN(C1CCC(=O)NC1=O)C2=O (centres undefined) [Lenalidomide] + CC1(C)CCC(c2ccc(Cl)cc2)=C(CN2CCN(c3ccc(C(=O)NS(=O)(=O)c4ccc(N[C@H](CCN5CCOCC5)CSc5ccccc5)c(S(=O)(=O)C(F)(F)F)c4)cc3)CC2)C1 [Navitoclax] (partner 0.5 µM)	0.814	0.805	0.803	0.863	1.21	1.17	1.21	1.24	0.374	0.399	0.434	0.481	1.05								relative viability (NCI-H1299; first compound 0.8 µM): 1.04; relative viability (NCI-H1299; first compound 2.53 µM): 1.07; relative viability (NCI-H1299; first compound 8 µM): 1.05
Nc1cccc2c1CN(C1CCC(=O)NC1=O)C2=O (centres undefined) [Lenalidomide] + CC(=O)Nc1cccc(-n2c(=O)n(C3CC3)c(=O)c3c(Nc4ccc(I)cc4F)n(C)c(=O)c(C)c32)c1 [Trametinib] (partner 0.02 µM)														0.556	0.597	0.476					
Nc1cccc2c1CN(C1CCC(=O)NC1=O)C2=O (centres undefined) [Lenalidomide] + CC(=O)c1c(C)c2cnc(Nc3ccc(N4CCNCC4)cn3)nc2n(C2CCCC2)c1=O [Palbociclib] (partner 0.5 µM)														0.304	0.282	0.253					
Nc1cccc2c1CN(C1CCC(=O)NC1=O)C2=O (centres undefined) [Lenalidomide] + CCNC(=O)c1noc(-c2cc(C(C)C)c(O)cc2O)c1-c1ccc(CN2CCOCC2)cc1 [Luminespib] (partner 0.01 µM)																	0.535	0.526	0.468	0.581	
Nc1cccc2c1CN(C1CCC(=O)NC1=O)C2=O (centres undefined) [Lenalidomide] + COc1cc2c(Oc3ccc(NC(=O)C4(C(=O)Nc5ccc(F)cc5)CC4)cc3F)ccnc2cc1OCCCN1CCOCC1 [Foretinib] (partner 0.25 µM)	0.932	0.889	0.921	0.887	0.925	0.954	1.04	0.897	0.0951	0.0871	0.0994	0.109	1.1				0.894	0.933	0.902	0.77	relative viability (NCI-H1299; first compound 0.8 µM): 1.08; relative viability (NCI-H1299; first compound 2.53 µM): 1.09; relative viability (NCI-H1299; first compound 8 µM): 1.13
Nc1cccc2c1CN(C1CCC(=O)NC1=O)C2=O (centres undefined) [Lenalidomide] + COc1cccc2cc(-c3nc([C@H]4CC[C@H](C(=O)O)CC4)n4ncnc(N)c34)[nH]c12 [OSI-027] (partner 0.5 µM)														0.272	0.253	0.227	0.751	0.8	0.804	0.72	relative viability (NCI-H1648; first compound 0.8 µM): 0.22
Nc1cccc2c1CN(C1CCC(=O)NC1=O)C2=O (centres undefined) [Lenalidomide] + CS(=O)(=O)N1CCN(Cc2cc3nc(-c4cccc5[nH]ncc45)nc(N4CCOCC4)c3s2)CC1 [Pictilisib] (partner 1 µM)	0.861	1.01	1.06	0.969	0.491	0.448	0.553	0.52	0.398	0.323	0.498	0.512	0.733				0.713	0.667	0.685	0.638	relative viability (NCI-H1299; first compound 0.8 µM): 0.923; relative viability (NCI-H1299; first compound 2.53 µM): 0.931; relative viability (NCI-H1299; first compound 8 µM): 0.963
Nc1cccc2c1CN(C1CCC(=O)NC1=O)C2=O (centres undefined) [Lenalidomide] + C[C@@H](Oc1cc(-c2cnn(C3CCNCC3)c2)cnc1N)c1c(Cl)ccc(F)c1Cl [Crizotinib] (partner 1 µM)	0.808	0.825	1.06	1.01	0.777	0.835	0.745	0.902	0.195	0.191	0.154	0.194	0.978				0.882	0.782	0.811	0.88	relative viability (NCI-H1299; first compound 0.8 µM): 1; relative viability (NCI-H1299; first compound 2.53 µM): 1.01; relative viability (NCI-H1299; first compound 8 µM): 0.977
Nc1cccc2c1CN(C1CCC(=O)NC1=O)C2=O (centres undefined) [Lenalidomide] + C[C@]1(O)C[C@@H](c2nc(-c3ccc4ccc(-c5ccccc5)nc4c3)c3c(N)nccn32)C1 [Linsitinib] (partner 1 µM)	0.836	0.984	1.12	0.818	0.539	0.573	0.56	0.368	0.826	0.849	1.09	0.774	0.954				1.17	1.16	1.08	1.01	relative viability (NCI-H1299; first compound 0.8 µM): 0.968; relative viability (NCI-H1299; first compound 2.53 µM): 1.06; relative viability (NCI-H1299; first compound 8 µM): 0.852
Nc1cccc2c1CN(C1CCC(=O)NC1=O)C2=O (centres undefined) [Lenalidomide] + Cc1cc(Nc2cc(N3CCN(C)CC3)nc(Sc3ccc(NC(=O)C4CC4)cc3)n2)n[nH]1 [Tozasertib] (partner 0.1 µM)														0.578	0.509	0.599					relative viability (NCI-H1648; first compound 0.8 µM): 0.317
Nc1cccc2c1CN(C1CCC(=O)NC1=O)C2=O (centres undefined) [Lenalidomide] + Cc1nc(Nc2ncc(C(=O)Nc3c(C)cccc3Cl)s2)cc(N2CCN(CCO)CC2)n1 [Dasatinib] (partner 0.075 µM)																	0.477	0.43	0.499	0.464	
Nc1cccc2c1CN(C1CCC(=O)NC1=O)C2=O (centres undefined) [Lenalidomide] + N=C(N)NC(=N)NCCc1ccccc1 [Phenformin] (partner 250 µM)					0.104	0.158	0.168	0.208									0.667	0.774	0.697	0.613	
Nc1cccc2c1CN(C1CCC(=O)NC1=O)C2=O (centres undefined) [Lenalidomide] + NC(=O)Nc1cc(-c2cccc(F)c2)sc1C(=O)N[C@H]1CCCNC1 [AZD7762] (partner 0.2 µM)														0.591	0.626	0.689					
Nc1cccc2c1CN(C1CCC(=O)NC1=O)C2=O (centres undefined) [Lenalidomide] + Nc1nc2[nH]cc(CCc3ccc(C(=O)N[C@@H](CCC(=O)O)C(=O)O)cc3)c2c(=O)[nH]1 [Pemetrexed] (partner 0.2 µM)														0.765	0.711	0.747	1	0.361	0.952	0.637	
Nc1cccc2c1CN(C1CCC(=O)NC1=O)C2=O (centres undefined) [Lenalidomide] + Nc1ncn([C@H]2C[C@H](O)[C@@H](CO)O2)c(=O)n1 [Decitabine] (partner 2 µM)					0.211	0.22	0.268	0.269						0.562	0.557	0.411					
Nc1cccc2c1CN(C1CCC(=O)NC1=O)C2=O (centres undefined) [Lenalidomide] + O=C(CCCCCCC(=O)Nc1ccccc1)NO [Vorinostat] (partner 1 µM)														0.513	0.885	0.392					
Nc1cccc2c1CN(C1CCC(=O)NC1=O)C2=O (centres undefined) [Lenalidomide] + O=C(c1cc(Cc2n[nH]c(=O)c3ccccc23)ccc1F)N1CCN(C(=O)C2CC2)CC1 [Olaparib] (partner 8 µM)	0.547	0.591	0.674	0.799	0.401	0.101	0.22	0.228	0.708	0.603	0.823	0.691	0.938	0.883	1.12	0.922					relative viability (NCI-H1299; first compound 0.8 µM): 1.03; relative viability (NCI-H1299; first compound 2.53 µM): 1; relative viability (NCI-H1299; first compound 8 µM): 1.07
Cc1cn(-c2cc(NC(=O)c3ccc(C)c(Nc4nccc(-c5cccnc5)n4)c3)cc(C(F)(F)F)c2)cn1 [Nilotinib] + CS(=O)(=O)CCNCc1ccc(-c2ccc3ncnc(Nc4ccc(OCc5cccc(F)c5)c(Cl)c4)c3c2)o1 [Lapatinib] (partner 2 µM)																					relative viability (A549; first compound 0.001 µM): 1.01; relative viability (A549; first compound 0.003162 µM): 1.07; relative viability (A549; first compound 0.01 µM): 1.09; relative viability (A549; first compound 0.03162 µM): 0.881; relative viability (A549; first compound 0.1 µM): 0.672; relative viability (NCI-H1563; first compound 0.001 µM): 0.961; relative viability (NCI-H1563; first compound 0.003162 µM): 0.916; relative viability (NCI-H1563; first compound 0.01 µM): 0.874; relative viability (NCI-H1563; first compound 0.03162 µM): 0.873; relative viability (NCI-H1563; first compound 0.1 µM): 0.596; relative viability (EBC-1; first compound 0.001 µM): 0.208; relative viability (EBC-1; first compound 0.003162 µM): 0.187; relative viability (EBC-1; first compound 0.01 µM): 0.179; relative viability (EBC-1; first compound 0.03162 µM): 0.186; relative viability (EBC-1; first compound 0.1 µM): 0.162; relative viability (NCI-H1299; first compound 0.001 µM): 0.967; relative viability (NCI-H1299; first compound 0.003162 µM): 0.974; relative viability (NCI-H1299; first compound 0.01 µM): 0.992; relative viability (NCI-H1299; first compound 0.03162 µM): 1.05; relative viability (NCI-H1299; first compound 0.1 µM): 0.98
Cc1cn(-c2cc(NC(=O)c3ccc(C)c(Nc4nccc(-c5cccnc5)n4)c3)cc(C(F)(F)F)c2)cn1 [Nilotinib] + Nc1nc2[nH]cc(CCc3ccc(C(=O)N[C@@H](CCC(=O)O)C(=O)O)cc3)c2c(=O)[nH]1 [Pemetrexed] (partner 0.2 µM)																					relative viability (NCI-H1563; first compound 0.001 µM): 0.746; relative viability (NCI-H1563; first compound 0.003162 µM): 0.712; relative viability (NCI-H1563; first compound 0.01 µM): 0.796; relative viability (NCI-H1563; first compound 0.03162 µM): 0.667; relative viability (NCI-H1563; first compound 0.1 µM): 0.552; relative viability (NCI-H1648; first compound 0.001 µM): 0.792; relative viability (NCI-H1648; first compound 0.003162 µM): 0.685; relative viability (NCI-H1648; first compound 0.01 µM): 0.726; relative viability (NCI-H1648; first compound 0.03162 µM): 0.506; relative viability (NCI-H1648; first compound 0.1 µM): 0.685
